Here are results for one compound from US6576254B1, “Polyamino acid vesicles” (University of Strathclyde, priority 1998, dated 2003).

The assay has as its system A549 cells. Description: Transfection of A549 cells with POP:cholesterol vesicles complexed to pCMV-sport-β-gal plasmid (β-galactosidase activity, absorbance 420 nm). It is filed as cell-based. The following applies: 50 μM chloroquine added during transfection with POP:cholesterol vesicle-plasmid complexes. As for the experimental part: Transfection experiments were carried out with the endotoxin free pCMV-sport-β-gal plasmid. 96-well plates were seeded with A549 calls (10,000 cells well^−1, 50,000 cells mL^−1) and incubated overnight with DMEM/F10+10% foetal calf serum (FCS)-Life Sciences, UK in 2% CO2 at 37° C. […] The mixture was incubated for 4 h (2% CO2, 37° C.) after which the media and POP-plasmid complexes were removed and replaced with DMEM/F10+10% FCS (0.2 mL). Cells were fed daily (DMEM/F10+10% FCS) over a 48 h period at the end of which they were lysed by the addition of 0.05 mL triton X-100 buffer (0.1% triton X-100, 0.25M tris hydrochloride, pH=8.0). The cells were then frozen at −70° C. and thawed at room temperature and 0.5% bovine serum albumin in phosphate buffered saline (0.05 mL) added to each well. This was followed by the addition of 0.15 mL ONPG (o-nitrophenyl β-D-galactopyranoside) in buffer (0.06M sodium dibasic phosphate, 0.001M magnesium chloride, 0.01M potassium chloride, 0.05M β-mercaptoethanol, pH=8.0). β-galactosidase activity was estimated by measuring the absorbance (420 nm) on a microtitre plate reader.

`CCN(CC)CCCC(C)Nc1ccnc2cc(Cl)ccc12` (stereo not shown) [chloroquine]: the “Effect on transfection levels” value is listed as “increase transfection levels”.
